From patent US8735414B2 (priority 2009, dated 2014) come the findings set out here.

Structures are written as SMILES.

Data set [1] concerns bicistronic HCV replicon (replicon RNA, GenBank Accession No. AJ242654). Nature of the data set: HCV Replicon Assay. The note with it: Hepatitis C virus, 72 h, read-out: Replicon IC50. The data set is classed as cell-based.

Turning to `C[C@@H](NS(=O)(=O)c1ccc(-c2c(C#N)c3cc(F)ccc3n2-c2ncccn2)nc1)C(F)(F)F` [compound 673, 6-[3-cyano-5-fluoro-1-(pyrimidin-2-yl)-1H-indol-2-yl]-N-[(2R)-1,1,1-trifluoropropan-2-yl]pyridine-3-sulfonamide], the melting point was 202 to 205 °C. Also, in data set [1], the IC50 is under 500 nM.
The like results for `CCc1cc2c(cc1F)c(C#N)c(-c1ccc(S(=O)(=O)NC3(C(F)(F)F)CC3)cn1)n2C1CCC1` [compound 642, 6-(3-cyano-1-cyclobutyl-6-ethyl-5-fluoro-1H-indol-2-yl)-N-[1-(trifluoromethyl)cyclopropyl]pyridine-3-sulfonamide] were, in that order, 203 to 203.5 °C and under 500 nM.
The like results for `Cc1cc2cc(-c3ccc(S(=O)(=O)N[C@@H](C)C(F)(F)F)cn3)n(C3CCC3)c2cc1OC(F)F` [compound 646, 6-[1-cyclobutyl-6-(difluoromethoxy)-5-methyl-1H-indol-2-yl]-N-[(2S)-1,1,1-trifluoropropan-2-yl]pyridine-3-sulfonamide] were, in that order, 151 to 153 °C and 2000 to 5000 nM.
For `Cc1cc2c(cc1F)cc(-c1ccc(S(=O)(=O)N[C@@H](C)C(F)(F)F)cn1)n2-c1ccnc(F)c1` [compound 944, 6-[5-fluoro-1-(2-fluoropyridin-4-yl)-6-methyl-1H-indol-2-yl]-N-[(2S)-1,1,1-trifluoropropan-2-yl]pyridine-3-sulfonamide], in that order: 176 to 180 °C and 500 to 2000 nM.
`N#Cc1c(-c2ccc(S(=O)(=O)NC(CF)CF)cn2)n(-c2ccccc2F)c2cc(OC(F)F)ccc12` [compound 227, 6-[3-cyano-6-(difluoromethoxy)-1-(2-fluorophenyl)-1H-indol-2-yl]-N-(1,3-difluoropropan-2-yl)pyridine-3-sulfonamide]: the melting point fell in the range of 188 to 191 °C. For the same compound, the IC50 in data set [1] is under 500 nM.
For `N#Cc1c(-c2ccc(S(=O)(=O)NC3(C(F)(F)F)CC3)cn2)n(C2CCC2)c2cc(OC(F)F)c(F)cc12` [compound 808, 6-[3-cyano-1-cyclobutyl-6-(difluoromethoxy)-5-fluoro-1H-indol-2-yl]-N-[1-(trifluoromethyl)cyclopropyl]pyridine-3-sulfonamide], in that order: 169 to 171 °C and under 500 nM.
The compound `CCCn1c(-c2ncc(S(=O)(=O)NC(CF)CF)cn2)c(C#N)c2ccc(OC(F)F)cc21` [compound 232, 2-[3-cyano-6-(difluoromethoxy)-1-propyl-1H-indol-2-yl]-N-(1,3-difluoropropan-2-yl)pyrimidine-5-sulfonamide] gave a melting point of 177 to 179 °C. Besides, the IC50 in data set [1] is under 500 nM.
The compound `Cc1cc2c(cc1F)c(C#N)c(-c1ccc(S(=O)(=O)N[C@@H](C)C(F)(F)F)cn1)n2-c1nncs1` [compound 977, 6-[3-cyano-5-fluoro-6-methyl-1-(1,3,4-thiadiazol-2-yl)-1H-indol-2-yl]-N-[(2S)-1,1,1-trifluoropropan-2-yl]pyridine-3-sulfonamide] had a melting point of 232 to 240 °C. Besides, in data set [1], the IC50 is under 500 nM.
For `Cc1ccc2c(c1)c(C#N)c(-c1ccc(S(=O)(=O)N[C@@H](C)C(F)(F)F)cn1)n2-c1ccccc1` [compound 921, 6-(3-cyano-5-methyl-1-phenyl-1H-indol-2-yl)-N-[(2S)-1,1,1-trifluoropropan-2-yl]pyridine-3-sulfonamide], in that order: 160 to 165 °C and under 500 nM.
In turn, `CCc1ccc2c(c1)c(C#N)c(-c1ccc(S(=O)(=O)NC(CF)CF)cn1)n2C1CCCC1` [compound 381, 6-(3-cyano-1-cyclopentyl-5-ethyl-1H-indol-2-yl)-N-(1,3-difluoropropan-2-yl)pyridine-3-sulfonamide] showed a melting point of 167 to 168 °C. For the same compound, the IC50 in data set [1] was under 500 nM.
`CC(C)NS(=O)(=O)c1cnc(-c2c(C#N)c3cc(F)ccc3n2C2CCC2)nc1` [compound 416, 2-(3-cyano-1-cyclobutyl-5-fluoro-1H-indol-2-yl)-N-(propan-2-yl)pyrimidine-5-sulfonamide]: the melting point is 195 to 200 °C. In data set [1], the IC50 is under 500 nM.
For the compound `CC(C)NS(=O)(=O)c1cnc(-c2c(C#N)c3ccc(C4CC4)cc3n2C2CCC2)nc1` [compound 71, 2-(3-cyano-1-cyclobutyl-6-cyclopropyl-1H-indol-2-yl)-N-(propan-2-yl)pyrimidine-5-sulfonamide], the melting point was 192 to 193 °C. Moreover, in data set [1], the half-inhibitory concentration (IC50) was under 500 nM.
As to `C[C@H](NS(=O)(=O)c1ccc(-c2c(C#N)c3cc(F)c(Cl)cc3n2C2CCC2)nc1)C(F)(F)F` [compound 360, 6-(6-chloro-3-cyano-1-cyclobutyl-5-fluoro-1H-indol-2-yl)-N-[(2S)-1,1,1-trifluoropropan-2-yl]pyridine-3-sulfonamide], the melting point was 203 to 206 °C. Also, the IC50 in data set [1] is under 500 nM.
Turning to `N#Cc1c(-c2ncc(S(=O)(=O)NC(CF)CF)cn2)n(C2CCCCC2)c2cc(Cl)ccc12` [compound 517, 2-(6-chloro-3-cyano-1-cyclohexyl-1H-indol-2-yl)-N-(1,3-difluoropropan-2-yl)pyrimidine-5-sulfonamide], the melting point was in the range of 228 to 234 °C. In addition, the IC50 in data set [1] was under 500 nM.
Consider `C[C@H](NS(=O)(=O)c1cnc(-c2c(C#N)c3ccc(CC(F)F)cc3n2C2CCC2)nc1)C1CC1` [compound 592, 2-[3-cyano-1-cyclobutyl-6-(2,2-difluoroethyl)-1H-indol-2-yl]-N-[(1S)-1-cyclopropylethyl]pyrimidine-5-sulfonamide], for which the melting point was 168 to 175 °C. Further, the IC50 in data set [1] was under 500 nM.
In the case of `CCc1cc(F)c2c(C(N)=O)c(-c3ccc(NS(=O)(=O)C(C)(C)C)cn3)n(C3CCC3)c2c1` [compound 1110, 2-{5-[(tert-butylsulfonyl)amino]pyridin-2-yl}-1-cyclobutyl-6-ethyl-4-fluoro-1H-indole-3-carboxamide], the melting point fell in the range of 259 to 263 °C. The IC50 in data set [1] is under 500 nM.
As for `Cc1cc2c(cc1Cl)c(C#N)c(-c1ccc(S(=O)(=O)N[C@@H](C)C(F)(F)F)cn1)n2-c1ccccn1` [compound 803, 6-[5-chloro-3-cyano-6-methyl-1-(pyridin-2-yl)-1H-indol-2-yl]-N-[(2S)-1,1,1-trifluoropropan-2-yl]pyridine-3-sulfonamide], the melting point fell in the range of 210 to 212 °C. Besides, in data set [1], the IC50 is under 500 nM.
`CC(C)c1ccc2c(C#N)c(-c3ncc(S(=O)(=O)N[C@@H](C)C(F)(F)F)cn3)n(C3CCC3)c2c1` [compound 455, 2-[3-cyano-1-cyclobutyl-6-(propan-2-yl)-1H-indol-2-yl]-N-[(2S)-1,1,1-trifluoropropan-2-yl]pyrimidine-5-sulfonamide] returned a melting point of 217 to 222 °C. In addition, in data set [1], the IC50 was under 500 nM.
`N#Cc1c(-c2ccc(S(=O)(=O)NC(CF)CF)cn2)n(C2CCC2)c2cc(OC(F)(F)F)ccc12` [compound 24, 6-[3-cyano-1-cyclobutyl-6-(trifluoromethoxy)-1H-indol-2-yl]-N-(1,3-difluoropropan-2-yl)pyridine-3-sulfonamide]: the melting point lay in the range of 158 to 160 °C. In addition, the IC50 in data set [1] is under 500 nM.
`CCn1c(-c2ccc(N(CC(F)F)S(=O)(=O)C3CC3)nc2)c(C#N)c2ccc(OC(C)C)cc21` [compound 292, N-{5-[3-cyano-1-ethyl-6-(propan-2-yloxy)-1H-indol-2-yl]pyridin-2-yl}-N-(2,2-difluoroethyl)cyclopropanesulfonamide] yielded a melting point of 232 to 235 °C. In addition, in data set [1], the IC50 was in the range of 500 to 2000 nM.
Consider `CCc1cc(OC)c2c(C#N)c(-c3ccc(S(=O)(=O)N[C@@H](C)C(F)(F)F)cn3)n(C3CCC3)c2c1` [compound 858, 6-(3-cyano-1-cyclobutyl-6-ethyl-4-methoxy-1H-indol-2-yl)-N-[(2S)-1,1,1-trifluoropropan-2-yl]pyridine-3-sulfonamide], for which the melting point is 187 to 188 °C. In addition, the IC50 in data set [1] lay within 500 to 2000 nM.
For the compound `N#Cc1c(-c2ncc(S(=O)(=O)NC(CF)CF)cn2)n(C2CCC2)c2cc(OC(F)F)c(Cl)cc12` [compound 659, 2-[5-chloro-3-cyano-1-cyclobutyl-6-(difluoromethoxy)-1H-indol-2-yl]-N-(1,3-difluoropropan-2-yl)pyrimidine-5-sulfonamide], the melting point was in the range of 228 to 232 °C. Moreover, in data set [1], the IC50 was under 500 nM.
Consider `Cc1cc2c(C#N)c(-c3ccc(S(=O)(=O)NC(CF)CF)cn3)n(C3CCCC3)c2cc1Cl` [compound 521, 6-(6-chloro-3-cyano-1-cyclopentyl-5-methyl-1H-indol-2-yl)-N-(1,3-difluoropropan-2-yl)pyridine-3-sulfonamide], for which the melting point lay in the range of 217.5 to 218 °C. Besides, in data set [1], the IC50 is under 500 nM.
The compound `CNC(=O)c1c(-c2ccc(S(=O)(=O)NC(C)(C)C)cn2)n(C2CCC2)c2cc(C)c(F)cc12` [compound 795, 2-[5-(tert-butylsulfamoyl)pyridin-2-yl]-1-cyclobutyl-5-fluoro-N,6-dimethyl-1H-indole-3-carboxamide] had a melting point of 215 to 218 °C. Besides, the IC50 in data set [1] is under 500 nM.
Compound `N#Cc1c(-c2ccc(S(=O)(=O)NC3(C(F)(F)F)CC3)cn2)n(C2CCCC2)c2cc(OC(F)F)ccc12` [compound 94, 6-[3-cyano-1-cyclopentyl-6-(difluoromethoxy)-1H-indol-2-yl]-N-[1-(trifluoromethyl)cyclopropyl]pyridine-3-sulfonamide] returned a melting point of 186 to 193 °C. In addition, the IC50 in data set [1] was under 500 nM.
As to `Cc1ccc2c(c1)c(C#N)c(-c1ccc(S(=O)(=O)N[C@H](C)C(F)(F)F)cn1)n2C1CCCCC1` [compound 487, 6-(3-cyano-1-cyclohexyl-5-methyl-1H-indol-2-yl)-N-[(2R)-1,1,1-trifluoropropan-2-yl]pyridine-3-sulfonamide], the melting point is 180 to 189 °C. Besides, the IC50 in data set [1] is under 500 nM.
